According to patent US12616681B2, “Compositions and methods for treating renal injury” (priority 2019, dated 2026):

How the values were obtained:
[1] = tested on: endogenous PGE2 levels in kidney tissue; assay: Renal PGE2 levels after intraperitoneal injection in mice (Example 1); assay type: in vivo
Experimental: […] Protein concentrations of supernatant were determined by BCA assay (ThermoFisher Scientific, Rockford, IL). The PGE2 level was measured using a PGE2 ELISA kit (R&D Systems, Minneapolis, MN) in triplicate. PGE2 levels were expressed as nanograms of PGE2 per milligram of protein. Renal function was assessed by determining the serum levels of blood urea nitrogen (BUN; Abcam), serum creatinine (Agilent 6410 LC-MS/MS, Agilent, Santa Clara, CA), lipocalin-2 (R&D Systems), and kidney injury molecule-1 (KIM-1; R&D Systems) after reperfusion for 24 h. Measurement of serum creatinine was by HPLC. Serum creatinine was assessed using an Agilent 6410 LC-MS/MS system coupled with an Agilent 1200 series HPLC system (Agilent). The sample preparation for serum creatinine was that 50 μL of serum samples were mixed with 100 μL of acetonitrile that contained creatinine-d3 as an internal standard (5 μg/mL). The mixture was centrifuged at 13,000 rpm for 10 min after vigorous vortex, and 1 μL of supernatant was then injected into the LC-MS/MS system. The chromatography separation was performed on a Hypersil GOLD C18 column (150×2.1 mm, 3 m, Thermo Scientific) using a mobile phase of 0.1% formic acid solution and acetonitrile [70:30 (vol/vol)]. The flow rate was 0.2 mL/min. […] The multiple-reaction monitoring mode using specific precursor/production transition was used for quantification. […]

[2] = tested on: mice with ischemic AKI (bilateral renal IRI); assay: Renal IRI model: PGE2 (EP1-EP4) and adenosine A2A receptor expression; assay type: in vivo, C57/BL6 mice
Experimental: PGE2 receptors (EP1, EP2, EP3, and EP4) and adenosineA2A receptor mRNA levels were deter-mined by real-time PCR. Their protein levels were determined by Western blot assay and immunofluorescence analysis.

[3] = tested on: mice with ischemic AKI (bilateral renal IRI); assay: Renal IRI model: oxidative stress (MDA in kidney tissue); assay type: in vivo, C57/BL6 mice; details: single pre-IRI dose; vehicle peaked at 2 h at 48%
Experimental: Reactive oxygen species (ROS) levels were determined by measurement of malondialdehyde (MDA), the end product of lipid peroxidation in kidney lysates. Free MDA reacts with thiobarbituric acid (TBA) at 95° C. to generate an MDA-TBA adduct, which can be quantified colorimetrically at a wavelength of 532 nm. MDA levels were measured in kidney lysates using a lipid peroxidation (MDA) assay kit (Abcam, Cambridge, UK). Results were corrected for total protein level and are expressed as […].

[4] = tested on: contrast-induced acute kidney injury (CIAKI) mice; assay: CIAKI mouse model: renal blood flow (laser Doppler flux); assay type: in vivo, C57/BL6 mice; details: CM + drug, 48 h after CM
Experimental: Total RBF was assessed by measuring renal Doppler flux using noninvasive laser Doppler flowmetry (PeriFlux System 5000, Perimed AB, Sweden). Laser Doppler probes were placed on the kidney surface to measure the renal flux. The flux was measured 48 h after CM administration. The relative increase represented the percentage increase in renal blood flow from baseline to peak for each test. Statistical significance was set as p<0.05.

[5] = tested on: contrast-induced acute kidney injury (CIAKI) mice; assay: CIAKI mouse model: AMP and adenosine levels in renal tissue; assay type: in vivo, C57/BL6 mice; details: CIAKI mice, CM + drug, 48 h after CM
Experimental: 48 h after CM administration, serum and kidney tissues were harvested. The adenosine levels in the serum and kidney tissues were measured using high-performance liquid chromatography.

[6] = tested on: contrast-induced acute kidney injury (CIAKI) mice; assay: CIAKI mouse model: PGE2 receptor (EP) expression in kidney tissue; assay type: in vivo, C57/BL6 mice; details: CM + drug
[7] = pretreatment, mRNA in kidney tissue

adenosine A2A receptor ([2]; 24 h, vs sham and IRI mice): induced
EP4 receptor mRNA levels ([2]; 24 h post-IRI): significantly increased
levels of EP2 receptors ([2]; 24 h post-IRI): no effect
levels of EP3 receptors ([2]; 24 h post-IRI): no effect
EP4 receptor protein ([2]; 24 h post-IRI, vs vehicle-treated mice): more than twice as high
pre-IRI levels of A2A receptors [2, 7]: increased
pre-IRI levels of EP4 receptors [2, 7]: increased
Structure (SMILES): CCCC[S+]([O-])c1sc2nc(-c3cccs3)cc(-c3ccccc3)c2c1N (stereo not drawn) [SW033291]
endogenous renal PGE2 (peak) ([1]; 1 h after intraperitoneal 5 mg/kg): tripling
renal PGE2 ([1]; 3 h after intraperitoneal injection of 2.5 or 5 mg/kg): dose-dependent increase
MDA increase above baseline after renal IRI [3]: 14%
RBF (renal Doppler flux) [4]: 635.2±11.10
AMP in renal tissue [5]: 15.60 ± 1.26 ng/mL
adenosine in renal tissue [5]: 2.65 ± 0.15 ng/mL
EP3 expression [6]: 1.00±0.02 fold
EP4 expression level [6]: 1.25±0.02 fold
